According to patent US20250368649A1, “TETRAHYDROPYRIDOPYRIMIDINE PAN-KRAS INHIBITORS” (Mirati Therapeutics, Inc., priority 2022, published 2025):

Columns and labels:
PSN1 cells = assay: Inhibition of KRas-mediated phosphorylation of ERK (Cisbio HTRF pERK), PSN1 cells; format: cell-based; conditions: Homo sapiens, PSN1, 3 h
Protocol: (§1) Inhibition of KRas Phosphorylation of ERK (HTRF) by Exemplary Compounds of Formula (I) Cisbio HTRF Advanced pERK Assay Catalog #64AERPEH • Cells: MKN1, PSN1 • Procedure: • Day 1: Seed 6,000 cells/well -25 µl/well in 384-well white solid bottom plate; RPM1_10% FBS.

ASPC1 cells = assay: Inhibition of KRas-mediated phosphorylation of ERK (Cisbio HTRF pERK), ASPC1 cells; format: cell-based; conditions: Homo sapiens, ASPC1, 3 h, AsPC-1 cells, 3 hr compound incubation
KRas G12R = KRas G12R (Homo sapiens, UniProt P01116, G12R); assay: biochemical; conditions: Binding to KRas (IC50 nM) G12R, TR-FRET displacement, KRas G12R
Sequence of KRas G12R (P01116 1-169 isoform P01116-2 G12R): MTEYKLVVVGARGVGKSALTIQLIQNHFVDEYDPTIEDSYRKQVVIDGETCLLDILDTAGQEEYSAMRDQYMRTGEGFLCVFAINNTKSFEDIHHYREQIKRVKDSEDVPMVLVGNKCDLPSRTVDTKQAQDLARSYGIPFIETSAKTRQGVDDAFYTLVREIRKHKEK

HCT116 cells = assay: Inhibition of KRas-mediated phosphorylation of ERK (Cisbio HTRF pERK), HCT116 cells; format: cell-based; conditions: Homo sapiens, HCT-116, 3 h, 3 hr compound incubation, Cisbio pERK HTRF
KRas G12D = KRas G12D (Homo sapiens, UniProt P01116, G12D); assay: biochemical; conditions: Binding to KRas (IC50 nM) G12D, TR-FRET displacement, KRas G12D
Sequence of KRas G12D (P01116 1-169 isoform P01116-2 G12D): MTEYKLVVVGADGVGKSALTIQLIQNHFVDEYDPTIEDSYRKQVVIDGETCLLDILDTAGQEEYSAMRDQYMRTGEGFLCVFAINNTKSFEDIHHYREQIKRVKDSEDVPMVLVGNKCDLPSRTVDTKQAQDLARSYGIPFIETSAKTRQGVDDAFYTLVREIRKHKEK

KRas G12V = KRas G12V (Homo sapiens, UniProt P01116, G12V); assay: biochemical; conditions: Binding to KRas (IC50 nM) G12V, TR-FRET displacement, KRas G12V
Sequence of KRas G12V (P01116 1-169 isoform P01116-2 G12V): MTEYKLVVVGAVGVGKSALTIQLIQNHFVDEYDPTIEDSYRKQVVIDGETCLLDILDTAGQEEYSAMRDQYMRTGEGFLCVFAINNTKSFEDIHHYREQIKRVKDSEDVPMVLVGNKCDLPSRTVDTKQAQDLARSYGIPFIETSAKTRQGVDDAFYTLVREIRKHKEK

MKN1 cells = assay: Inhibition of KRas-mediated phosphorylation of ERK (Cisbio HTRF pERK), MKN1 cells; format: cell-based; conditions: Homo sapiens
Protocol: as §1

A549 cells = assay: Inhibition of KRas-mediated phosphorylation of ERK (Cisbio HTRF pERK), A549 cells; format: cell-based; conditions: Homo sapiens, A549, 3 h, 3 hr compound incubation, Cisbio pERK HTRF
H727 cells = assay: Inhibition of KRas-mediated phosphorylation of ERK (Cisbio HTRF pERK), H727 cells; format: cell-based; conditions: Homo sapiens, NCI-H727, 3 h, 3 hr compound incubation
[1] = 3 hour compound incubation, Cisbio pERK HTRF
[2] = MKN-1, 3 hour compound incubation, Cisbio pERK HTRF

| Compound | IC50 (PSN1 cells; [1]) | IC50 (ASPC1 cells; Cisbio pERK HTRF) | IC50 (KRas G12R) | IC50 (HCT116 cells) | IC50 (KRas G12D) | IC50 (KRas G12V) | IC50 (MKN1 cells; [2]) | IC50 (A549 cells) | IC50 (H727 cells; Cisbio pERK HTRF) | IC50 (PSN1 cells; 3 hr compound incubation) | IC50 (ASPC1 cells) | IC50 (MKN1 cells; MKN-1, 3 hr compound incubation) | IC50 (H727 cells) |
| --- | --- | --- | --- | --- | --- | --- | --- | --- | --- | --- | --- | --- | --- |
| CCc1c(F)ccc2cc(O)cc(N3CCc4c(nc(OC[C@]56CCCN5[C@H](COC(=O)N(C)C)CC6)nc4N4CCC[C@@](C)(O)C4)C3)c12 [Example 435, ((3S,7aR)-7a-(((7-(8-ethyl-7-fluoro-3-hydroxynaphthalen-1-yl)-4-((R)-3-hydroxy-3-methylpiperidin-1-yl)-5,6,7,8-tetrahydropyrido[3,4-d]pyrimidin-2-yl)oxy)methyl)hexahydro-1H-pyrrolizin-3-yl)methyl dimethylcarbamate] | 4200 nM | 172 nM | 2 nM | 215 nM | 2 nM | 3 nM | 40 nM | 164 nM | 578 nM | – | – | – | – |
| CCc1c(F)ccc2cc(O)cc(N3CCc4c(nc(OC[C@@]56CCCN5C[C@H](F)C6)nc4N4C[C@H]5C[C@@H](C4)C(=O)NC5=O)C3)c12 [Example 416, (1R,5S)-7-(7-(8-ethyl-7-fluoro-3-hydroxynaphthalen-1-yl)-2-(((2R,7aS)-2-fluorohexahydro-1H-pyrrolizin-7a-yl)methoxy)-5,6,7,8-tetrahydropyrido[3,4-d]pyrimidin-4-yl)-3,7-diazabicyclo[3.3.1]nonane-2,4-dione] | 4710 nM | 486 nM | < 2 nM | – | 4 nM | < 2 nM | 19.9 nM | 100 nM | 346 nM | – | – | – | – |
| O=S1(=O)CCC2(CCCN(c3nc(OC[C@@]45CCCN4C[C@H](F)C5)nc4c3CCN(c3cc(O)cc5cccc(Cl)c35)C4)C2)N1 (stereo partly drawn) [Example 513, 7-(7-(8-chloro-3-hydroxynaphthalen-1-yl)-2-(((2R,7aS)-2-fluorohexahydro-1H-pyrrolizin-7a-yl)methoxy)-5,6,7,8-tetrahydropyrido[3,4-d]pyrimidin-4-yl)-2-thia-1,7-diazaspiro[4.5]decane 2,2-dioxide] | 949 nM | 27 nM | < 2 nM | – | 3 nM | < 2 nM | 6 nM | – | 92 nM | – | – | – | – |
| CCc1c(F)ccc2cc(O)cc(N3CCc4c(nc(OCC5(CN(C)C)CC5)nc4N4C[C@@H]5C[C@H](C4)[C@H](O)C5)C3)c12 [Example 431, (1R,5R,6R)-3-(2-((1-((dimethylamino)methyl)cyclopropyl)methoxy)-7-(8-ethyl-7-fluoro-3-hydroxynaphthalen-1-yl)-5,6,7,8-tetrahydropyrido[3,4-d]pyrimidin-4-yl)-3-azabicyclo[3.2.1]octan-6-ol] | > 10000 nM | 1410 nM | < 2 nM | – | 6 nM | 2 nM | 158 nM | – | 1100 nM | – | – | – | – |
| CCc1c(F)ccc2cc(O)cc(N3CCc4c(nc(OC[C@@]56CCCN5C[C@H](F)C6)nc4N4CCCn5nc(N(C)C)cc5C4)C3)c12 [Example 405, 4-(4-(2-(dimethylamino)-7,8-dihydro-4H-pyrazolo[1,5-a][1,4]diazepin-5(6H)-yl)-2-(((2R,7aS)-2-fluorotetrahydro-1H-pyrrolizin-7a(5H)-yl)methoxy)-5,8-dihydropyrido[3,4-d]pyrimidin-7(6H)-yl)-5-ethyl-6-fluoronaphthalen-2-ol] | > 10000 nM | 339 nM | 3 nM | – | 5 nM | 9 nM | 99.9 nM | 273 nM | 308 nM | – | – | – | – |
| O=C1CC2(CCCN(c3nc(OC[C@@]45CCCN4C[C@H](F)C5)nc4c3CCN(c3cc(O)cc5ccc(F)c(Cl)c35)C4)C2)C(=O)N1 (stereo partly drawn) [Example 467, 7-(7-(8-chloro-7-fluoro-3-hydroxynaphthalen-1-yl)-2-(((2R,7aS)-2-fluorohexahydro-1H-pyrrolizin-7a-yl)methoxy)-5,6,7,8-tetrahydropyrido[3,4-d]pyrimidin-4-yl)-2,7-diazaspiro[4.5]decane-1,3-dione] | 841 nM | 533 nM | < 2 nM | 296 nM | < 2 nM | < 2 nM | 37.2 nM | 226 nM | 257 nM | – | – | – | – |
| CCc1c(F)ccc2cc(O)cc(N3CCc4c(nc(OC[C@@]56CCCN5C[C@H](F)C6)nc4N4CCCCn5nc(N)cc5C4)C3)c12 [Example 590, 4-(4-(2-amino-6,7,8,9-tetrahydropyrazolo[1,5-a][1,4]diazocin-5(4H)-yl)-2-(((2R,7aS)-2-fluorotetrahydro-1H-pyrrolizin-7a(5H)-yl)methoxy)-5,8-dihydropyrido[3,4-d]pyrimidin-7(6H)-yl)-5-ethyl-6-fluoronaphthalen-2-ol] | 9600 nM | 391 nM | < 2 nM | – | 4 nM | 2 nM | 40.8 nM | – | 277 nM | – | – | – | – |
| CCc1c(F)ccc2cc(O)cc(N3CCc4c(nc(OC[C@@]56CCCN5C[C@H](F)C6)nc4NCC4CNS(=O)(=O)N4)C3)c12 (stereo partly drawn) [Example 410, 3-(((7-(8-ethyl-7-fluoro-3-hydroxynaphthalen-1-yl)-2-(((2R,7aS)-2-fluorohexahydro-1H-pyrrolizin-7a-yl)methoxy)-5,6,7,8-tetrahydropyrido[3,4-d]pyrimidin-4-yl)amino)methyl)-1,2,5-thiadiazolidine 1,1-dioxide] | > 10000 nM | > 10000 nM | 7 nM | – | 18 nM | 4 nM | 217 nM | – | 1670 nM | – | – | – | – |
| CCc1c(F)ccc2cc(O)cc(N3CCc4c(nc(OC[C@@]56CCCN5C[C@H](F)C6)nc4N4Cc5cn(C(=O)N(C)C)nc5CC(C)(C)C4)C3)c12 [Example 424, 5-(7-(8-ethyl-7-fluoro-3-hydroxynaphthalen-1-yl)-2-(((2R,7aS)-2-fluorohexahydro-1H-pyrrolizin-7a-yl)methoxy)-5,6,7,8-tetrahydropyrido[3,4-d]pyrimidin-4-yl)-N,N,7,7-tetramethyl-5,6,7,8-tetrahydropyrazolo[4,3-c]azepine-2(4H)-carboxamide] | > 10000 nM | 926 nM | 9 nM | – | 31 nM | 5 nM | 148 nM | 698 nM | 460 nM | – | – | – | – |
| CCc1c(F)ccc2cc(O)cc(N3CCc4c(nc(OC[C@@]56CCCN5C[C@H](F)C6)nc4NCC4CC(=O)NC4=O)C3)c12 (stereo partly drawn) [Example 414, 3-(((7-(8-ethyl-7-fluoro-3-hydroxynaphthalen-1-yl)-2-(((2R,7aS)-2-fluorotetrahydro-1H-pyrrolizin-7a(5H)-yl)methoxy)-5,6,7,8-tetrahydropyrido[3,4-d]pyrimidin-4-yl)amino)methyl)pyrrolidine-2,5-dione] | 7540 nM | 3000 nM | 11 nM | – | 8 nM | 3 nM | 28.4 nM | – | 935 nM | – | – | – | – |
| CCc1c(F)ccc2cc(O)cc(N3CCc4c(nc(OC[C@@]56CCCN5C[C@H](F)C6)nc4N4CCCn5ncc(CO)c5C4)C3)c12 [Example 633, 5-ethyl-6-fluoro-4-(2-(((2R,7aS)-2-fluorotetrahydro-1H-pyrrolizin-7a(5H)-yl)methoxy)-4-(3-(hydroxymethyl)-7,8-dihydro-4H-pyrazolo[1,5-a][1,4]diazepin-5(6H)-yl)-5,8-dihydropyrido[3,4-d]pyrimidin-7(6H)-yl)naphthalen-2-ol] | – | – | < 2 nM | – | < 2 nM | < 2 nM | – | – | – | > 10000 nM | 48 nM | 70.3 nM | 100 nM |
| CCc1c(F)ccc2cc(O)cc(N3CCc4c(nc(OC[C@@]56CCCN5C[C@H](F)C6)nc4N4CCCn5nc(C(=O)N6CC7CN(C8COC8)CC7C6)cc5C4)C3)c12 (stereo partly shown) [Example 503] | 3230 nM | 11 nM | < 2 nM | – | < 2 nM | < 2 nM | 10.7 nM | – | 19 nM | – | – | – | – |
| CCc1c(F)ccc2cc(O)cc(N3CCc4c(nc(OC[C@@]56CCCN5C[C@H](F)C6)nc4N4CCCC5(CSC5)C4)C3)c12 [Example 421, 5-ethyl-6-fluoro-4-(2-(((2R,7aS)-2-fluorohexahydro-1H-pyrrolizin-7a-yl)methoxy)-4-(2-thia-6-azaspiro[3.5]nonan-6-yl)-5,6-dihydropyrido[3,4-d]pyrimidin-7(8H)-yl)naphthalen-2-ol] | 9630 nM | 377 nM | 3 nM | 3260 nM | 5 nM | < 2 nM | 449 nM | 322 nM | 275 nM | – | – | – | – |
